Data taken from US4073935A, “Substituted propanol-(2)-derivatives and their nicotinic acid esters, and process for their preparation, and the use thereof as hypolipemic drugs” (Klinge Pharma GmbH & Co., priority 1974, dated 1978).
Read-outs that look alike come from different tables or passages of the source.

Tested on: serum lipids
Assay: Lipid-lowering action in normolipemic rats
Assay type: in vivo
Conditions: Rattus norvegicus, 72 h, 4 × 100 mg/kg oral over 3 days, male Wistar rats, vs controls, X ± Sx
Method: Lipid-lowering action was tested on groups of 10 male Wistar rats (Ivanovas-Kisslegg), weight 200-220 g, normolipemic, or ordinary ration ("ssniff" complete feed).
The test compounds were taken up in an aqueous solution of 0.25% agar and 0.85% NaCl and administered orally. After administration of 4 × 100 mg/kg over a period of 3 days, the animals were bled by cardiac puncture after privation of […] for 4 hours.^1
^1 H. Enomoto and R. Zschocke, 3rd Int. Symp. Atheroscler, Berlin 1973, Abstr. 238.
Serum lipids were determined with a Technicon autoanalyzer. Total cholesterol (TC) was tested by the Liebermann-Burchard reaction. Quantitative analysis for triglycerides (TG) was performed by Eggstein and Kreutz's enzyme method (Klin. Wschr. 44, 262, 1966), modified for autoanalyzer.
Lipid lowering effect is expressed as percent lowering of total cholesterol and triglycerides compared to controls.

[1] = read-out: % Lowering TC (total cholesterol)
[2] = read-out: % Lowering TG (triglycerides)

## COC(=O)c1ccc(OCC(O)COc2ccc(Cl)cc2)cc1 (stereo not drawn) [Compound 1, 3-(4'-methoxycarbonylphenoxy)-1-(4'-chlorophenoxy)propanol-(2)]
[1]
  inhibition in vivo at 100 mg/kg: 47.9 ± 10.2%
[2]
  inhibition in vivo at 100 mg/kg: 63.8 ± 17.2%

## CCOC(=O)c1ccc(OCC(O)COc2ccc(Cl)cc2)cc1 (stereo not drawn) [Compound 2]
[1]
  inhibition in vivo at 100 mg/kg: 40.4 ± 24.3%
[2]
  inhibition in vivo at 100 mg/kg: 60.2 ± 8.4%

## C=CCOC(=O)c1ccc(OCC(O)COc2ccc(Cl)cc2)cc1 (stereo not drawn) [Compound 3]
[1]
  inhibition in vivo at 100 mg/kg: 35.9 ± 18.1%
[2]
  inhibition in vivo at 100 mg/kg: 68.6 ± 11%

## CCCOC(=O)c1ccc(OCC(O)COc2ccc(Cl)cc2)cc1 (stereo not drawn) [Compound 4]
[1]
  inhibition in vivo at 100 mg/kg: 53 ± 7.5%
[2]
  inhibition in vivo at 100 mg/kg: 74.2 ± 13.4%

## CC(C)OC(=O)c1ccc(OCC(O)COc2ccc(Cl)cc2)cc1 (stereo not drawn) [Compound 5]
[1]
  inhibition in vivo at 100 mg/kg: 15.5 ± 14.7%
[2]
  inhibition in vivo at 100 mg/kg: 54.6 ± 28.3%

## COC(=O)c1cccc(OCC(O)COc2ccc(Cl)cc2)c1 (stereo not drawn) [Compound 6]
[1]
  inhibition in vivo at 100 mg/kg: 28.5 ± 10%
[2]
  inhibition in vivo at 100 mg/kg: 78.1 ± 11.2%

## CC(C)OC(=O)c1cccc(OCC(O)COc2ccc(Cl)cc2)c1 (stereo not drawn) [Compound 7]
[1]
  inhibition in vivo at 100 mg/kg: 32.1 ± 18.1%
[2]
  inhibition in vivo at 100 mg/kg: 73.2 ± 8.3%

## COC(=O)C=Cc1ccc(OCC(O)COc2ccc(Cl)cc2)cc1 (stereo not drawn) [Compound 8, 3-(4'-(2-methoxycarbonylvinyl)-phenoxy)-1-(4'-chlorophenoxy)-propanol-(2)]
[1]
  inhibition in vivo at 100 mg/kg: 17.3 ± 26%
[2]
  inhibition in vivo at 100 mg/kg: 52.1 ± 7.7%

## COC(=O)CCc1ccc(OCC(O)COc2ccc(Cl)cc2)cc1 (stereo not drawn) [Compound 9]
[1]
  inhibition in vivo at 100 mg/kg: 44.5 ± 17.5%
[2]
  inhibition in vivo at 100 mg/kg: 87.9 ± 11.9%

## CCOC(=O)C=Cc1ccc(OCC(O)COc2ccc(Cl)cc2)cc1 (stereo not drawn) [Compound 10]
[1]
  inhibition in vivo at 100 mg/kg: 38.4 ± 5.6%
[2]
  inhibition in vivo at 100 mg/kg: 77.4 ± 8.5%

## C=CCOC(=O)C=Cc1ccc(OCC(O)COc2ccc(Cl)cc2)cc1 (stereo not drawn) [Compound 11]
[1]
  inhibition in vivo at 100 mg/kg: 76.1 ± 3.7%
[2]
  inhibition in vivo at 100 mg/kg: 40.2 ± 10.3%

## CCCOC(=O)C=Cc1ccc(OCC(O)COc2ccc(Cl)cc2)cc1 (stereo not drawn) [Compound 12]
[1]
  inhibition in vivo at 100 mg/kg: 40.3 ± 10.8%
[2]
  inhibition in vivo at 100 mg/kg: 67 ± 15.7%

## CC(C)OC(=O)C=Cc1ccc(OCC(O)COc2ccc(Cl)cc2)cc1 (stereo not drawn) [Compound 13]
[1]
  inhibition in vivo at 100 mg/kg: 50.4 ± 7.3%
[2]
  inhibition in vivo at 100 mg/kg: 79.7 ± 10.4%

## COC(=O)C=Cc1cccc(OCC(O)COc2ccc(Cl)cc2)c1 (stereo not drawn) [Compound 14]
[1]
  inhibition in vivo at 100 mg/kg: 22.9 ± 5.2%
[2]
  inhibition in vivo at 100 mg/kg: 64.8 ± 17.7%

## C=CCOC(=O)c1ccc(OCC(O)COc2ccc(C(C)(C)C)cc2)cc1 (stereo not drawn) [Compound 17]
[1]
  inhibition in vivo at 100 mg/kg: 55.8 ± 7.1%
[2]
  inhibition in vivo at 100 mg/kg: 83.4 ± 8.8%

## CCCOC(=O)c1ccc(OCC(O)COc2ccc(C(C)(C)C)cc2)cc1 (stereo not drawn) [Compound 18]
[1]
  inhibition in vivo at 100 mg/kg: 34.4 ± 6.9%
[2]
  inhibition in vivo at 100 mg/kg: 68.3 ± 23.1%

## CC(C)OC(=O)c1ccc(OCC(O)COc2ccc(C(C)(C)C)cc2)cc1 (stereo not drawn) [Compound 19]
[1]
  inhibition in vivo at 100 mg/kg: 44.9 ± 8%
[2]
  inhibition in vivo at 100 mg/kg: 72.9 ± 6.1%

## COC(=O)CCc1ccc(OCC(O)COc2ccc(C(C)(C)C)cc2)cc1 (stereo not drawn) [Compound 22, 3-(4'-(2-methoxycarbonylethyl)-phenoxy)-1-(4'-tert.-butylphenoxy)-propanol-(2)]
[1]
  inhibition in vivo at 100 mg/kg: 46.9 ± 11.4%
[2]
  inhibition in vivo at 100 mg/kg: 79 ± 10.7%

## CCCOC(=O)C=Cc1ccc(OCC(O)COc2ccc(C(C)(C)C)cc2)cc1 (stereo not drawn) [Compound 23]
[1]
  inhibition in vivo at 100 mg/kg: 40.9 ± 9.3%
[2]
  inhibition in vivo at 100 mg/kg: 77.9 ± 5.5%

## COC(=O)c1ccc(OCC(O)CNc2ccc(Cl)cc2)cc1 (stereo not drawn) [Compound 26, 3-(4'-methoxycarbonylphenoxy)-1-(4'-chlorophenylamino)-propanol-(2)]
[1]
  inhibition in vivo at 100 mg/kg: 25.8 ± 23.7%
[2]
  inhibition in vivo at 100 mg/kg: 81 ± 5.2%

## CC(C)OC(=O)c1ccc(OCC(O)CNc2ccc(Cl)cc2)cc1 (stereo not drawn) [Compound 28]
[1]
  inhibition in vivo at 100 mg/kg: 30.8 ± 9.7%
[2]
  inhibition in vivo at 100 mg/kg: 64.6 ± 16.9%

## COC(=O)C=Cc1ccc(OCC(O)CNc2ccc(Cl)cc2)cc1 (stereo not drawn) [Compound 29]
[1]
  inhibition in vivo at 100 mg/kg: 12.7 ± 12.5%
[2]
  inhibition in vivo at 100 mg/kg: 62.3 ± 10.7%

## COC(=O)c1ccc(NCC(O)COc2ccc(Cl)cc2)cc1 (stereo not drawn) [Compound 30]
[1]
  inhibition in vivo at 100 mg/kg: 12.1 ± 8.6%
[2]
  inhibition in vivo at 100 mg/kg: 69.3 ± 15.9%

## CCOC(=O)c1ccc(NCC(O)COc2ccc(Cl)cc2)cc1 (stereo not drawn) [Compound 31]
[1]
  inhibition in vivo at 100 mg/kg: 33.3 ± 17.6%
[2]
  inhibition in vivo at 100 mg/kg: 63.6 ± 18.5%
